# In article PMC8545137, “Cryoelectron Microscopy Structures of AdeB Illuminate Mechanisms of Simultaneous Binding and Exporting of Substrates” (mBio, 2021):
# Key:
# [1] = target: T1, AdeB multidrug efflux pump (Acinetobacter baumannii, UniProt Q2FD70); experiment: fluorescence polarization titration with purified AdeB; assay type: binding; set-up: full-length
# CusB (Escherichia coli) = CusB (Escherichia coli) (UniProt P77239); experiment: ITC; conditions: cited from earlier work
# [2] = target: Acinetobacter baumannii AdeB multidrug efflux pump (Acinetobacter baumannii (AB0057)); experiment: cryo-EM structure; AdeB in lipidic nanodiscs (MSP 1E3D1, E. coli total extract lipid; 20 mM Tris-HCl pH 7.5, 100 mM NaCl); 2 uM AdeB-nanodisc incubated with 20 uM ethidium bromide for 2 h; six conformational classes (three apo, three Et-bound) sorted from one sample
# [3] = target: T1, AdeB multidrug efflux pump; experiment: fluorescence polarization Kd with purified AdeB; cryo-EM structures in lipidic nanodiscs (7KGG, 7KGH, 7KGI); assay type: binding; set-up: full-length; homotrimer
# CusA, sequence (P38054 whole entry): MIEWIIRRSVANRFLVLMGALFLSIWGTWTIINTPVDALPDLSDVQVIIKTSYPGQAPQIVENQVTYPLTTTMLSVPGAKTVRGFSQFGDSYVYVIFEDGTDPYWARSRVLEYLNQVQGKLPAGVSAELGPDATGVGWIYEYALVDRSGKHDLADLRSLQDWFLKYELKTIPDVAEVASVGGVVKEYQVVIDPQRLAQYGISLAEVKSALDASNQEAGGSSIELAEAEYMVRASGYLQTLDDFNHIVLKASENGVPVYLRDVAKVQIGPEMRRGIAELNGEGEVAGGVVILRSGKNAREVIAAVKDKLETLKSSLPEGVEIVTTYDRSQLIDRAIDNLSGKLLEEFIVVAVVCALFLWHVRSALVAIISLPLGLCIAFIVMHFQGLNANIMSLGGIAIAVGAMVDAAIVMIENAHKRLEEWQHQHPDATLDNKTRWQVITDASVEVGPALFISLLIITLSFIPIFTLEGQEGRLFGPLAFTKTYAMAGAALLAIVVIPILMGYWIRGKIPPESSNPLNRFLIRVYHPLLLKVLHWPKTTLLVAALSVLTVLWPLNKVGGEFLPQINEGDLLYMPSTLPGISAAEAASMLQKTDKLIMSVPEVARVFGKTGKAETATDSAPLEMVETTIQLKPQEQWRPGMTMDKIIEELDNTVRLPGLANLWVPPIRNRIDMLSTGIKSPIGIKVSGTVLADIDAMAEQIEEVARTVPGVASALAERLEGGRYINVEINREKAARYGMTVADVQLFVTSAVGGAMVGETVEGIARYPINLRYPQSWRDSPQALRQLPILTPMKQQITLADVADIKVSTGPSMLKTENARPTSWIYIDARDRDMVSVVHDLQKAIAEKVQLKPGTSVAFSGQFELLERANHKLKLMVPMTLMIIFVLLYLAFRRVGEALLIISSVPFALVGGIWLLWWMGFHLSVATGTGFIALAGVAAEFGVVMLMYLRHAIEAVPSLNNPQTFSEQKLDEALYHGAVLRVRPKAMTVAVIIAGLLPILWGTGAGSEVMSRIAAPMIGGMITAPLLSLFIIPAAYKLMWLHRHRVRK
compound,measurement,setting,value
"CC/N=c1\cc2oc3cc(NCC)c(C)cc3c(-c3ccccc3C(=O)OCC)c-2cc1C [R6G, rhodamine 6G]",Kd,[1],3.1 ± 0.1 µM
CusA (from UniProt P38054),Kd,CusB (Escherichia coli),5.1 µM
Acinetobacter baumannii AdeB multidrug efflux pump (natural protein),stoichiometry N,[2],3
"CC[n+]1c(-c2ccccc2)c2cc(N)ccc2c2ccc(N)cc21 [Et, ethidium bromide]",Kd,[3],2.5 ± 0.1 µM
